The values that follow are results of earlier work, collected in US20230263779A1, “METHODS OF TREATING SOLID TUMORS USING NANOPARTICLE MTOR INHIBITOR COMBINATION THERAPY” (Abraxis BioScience, LLC, priority 2015, published 2023).

The conditions of series [1]: in vivo.

For `COc1ccc(COc2cc3oc(=O)c4cc(C(C)O)ccc4c3cc2OC)cc1` (centres unmarked) [Palomid 529], in the series with ABCB1/ABCG2, the “affinity for ABCB1/ABCG2” value is on record as “lacks affinity”. In series [1], the brain penetration entry is given as “good brain penetration”.
